Experimental data published in paper PMC10141580, “Cyclic Dichalcogenides Extend the Reach of Bioreductive Prodrugs to Harness Thiol/Disulfide Oxidoreductases: Applications to seco-Duocarmycins Targeting the Thioredoxin System” (ACS Central Science, 2023).
“And” between values parts separate entries of the source, which are not always exact repeats. Equal values may be shown once. Read-outs that look alike come from different tables or passages of the source.

Test system: panel of 140 standard cancer cell lines
Test: ProliFiler-140 cancer cell line screen (CellTiterGlo, 72 h)
Format: cell-based
Description: Incubations were performed for 72 h before automated viability readout with CellTiterGlo (Figure 8).
End of Figure S11 (part 5 of 5): ProliFiler-140 cancer cell line screening for cytotoxicity of the prodrugs.
8-data-point dose response curves from CellTiter-Glo® viability readout.
ProliFiler-140 cell line panel part V

COc1cc2cc(C(=O)N3C[C@@H](CCl)c4c3cc(OC(=O)N(CCC(=O)N3CCN(C)CC3)[C@H]3CCSSC3)c3ccccc43)[nH]c2c(OC)c1OC [P-SS60-CBI-TMI]
Reductive Activation Index (MKN-1 (Stomach)): 7.3 | IC50 (MKN-1 (Stomach), read-out: IC50 [M] (ProliFiler-140)): 2.1e-07 M | Reductive Activation Index (MKN-45 (Stomach)): 5.36 | IC50 (MKN-45 (Stomach), read-out: IC50 [M] (ProliFiler-140)): 9.08e-08 M and 9.1e-08 M | IC50 (MOLM-13 (Blood), read-out: IC50 [M] (ProliFiler-140)): 9.1e-09 M and 9.12e-09 M | IC50 (MOLT-4 (Blood), read-out: IC50 [M] (ProliFiler-140)): 1.3e-08 M and 1.29e-08 M | IC50 (MOLT-4, read-out: IC50): 1.3e-08 M | IC50 (MV4-11 (Blood), read-out: IC50 [M] (ProliFiler-140)): 2.8e-09 M and 2.76e-09 M | Reductive Activation Index (Mia PaCA 2 (Pancreas)): 5.48 | IC50 (Mia PaCA 2 (Pancreas), read-out: IC50 [M] (ProliFiler-140)): 6.84e-08 M and 6.8e-08 M | Reductive Activation Index (NALM-6 (Blood)): 5.7 | IC50 (NALM-6 (Blood), read-out: IC50 [M] (ProliFiler-140)): 9.79e-09 M and 9.8e-09 M | Reductive Activation Index (NCI-H82 (Lung)): 5.0 | IC50 (NCI-H82 (Lung), read-out: IC50 [M] (ProliFiler-140)): 1.5e-07 M and 1.49e-07 M | IC50 (NCI-H292 (Lung), read-out: IC50 [M] (ProliFiler-140)): 4.8e-08 M and 4.84e-08 M | Reductive Activation Index (NCI-H441 (Lung)): 5.40 | IC50 (NCI-H441 (Lung), read-out: IC50 [M] (ProliFiler-140)): 5.44e-08 M and 5.4e-08 M | Reductive Activation Index (NCI-H838 (Lung)): 6.2 | IC50 (NCI-H838 (Lung), read-out: IC50 [M] (ProliFiler-140)): 1.2e-07 M and 1.21e-07 M | Reductive Activation Index (NCI-H1048 (Lung)): 7.4 | IC50 (NCI-H1048 (Lung), read-out: IC50 [M] (ProliFiler-140)): 8e-09 M and 8.01e-09 M | IC50 (NCI-H1437 (Lung), read-out: IC50 [M] (ProliFiler-140)): 5.21e-08 M and 5.2e-08 M | Reductive Activation Index (NCI-H1563 (Lung)): 8.6 | IC50 (NCI-H1563 (Lung), read-out: IC50 [M] (ProliFiler-140)): 2e-07 M and 1.97e-07 M | Reductive Activation Index (NCI-H1573 (Lung)): 6.1 | IC50 (NCI-H1573 (Lung), read-out: IC50 [M] (ProliFiler-140)): 1.8e-07 M and 1.76e-07 M | IC50 (NCI-H1581 (Lung), read-out: IC50 [M] (ProliFiler-140)): 4.23e-08 M and 4.2e-08 M | Reductive Activation Index (NCI-H1703 (Lung)): 6.7 | IC50 (NCI-H1703 (Lung), read-out: IC50 [M] (ProliFiler-140)): 1.2e-07 M and 1.21e-07 M | Reductive Activation Index (NCI-H1838 (Lung)): 9.6 | IC50 (NCI-H1838 (Lung), read-out: IC50 [M] (ProliFiler-140)): 8.5e-08 M and 8.53e-08 M | IC50 (NCI-H2009 (Lung), read-out: IC50 [M] (ProliFiler-140)): 6.17e-08 M and 6.2e-08 M | IC50 (NCI-H2110 (Lung), read-out: IC50 [M] (ProliFiler-140)): 2.7e-08 M and 2.67e-08 M | IC50 (NCI-H2286 (Lung), read-out: IC50 [M] (ProliFiler-140)): 1.9e-08 M and 1.91e-08 M | Reductive Activation Index (NCI-N87 (Stomach)): 8.1 | IC50 (NCI-N87 (Stomach), read-out: IC50 [M] (ProliFiler-140)): 1.4e-07 M and 1.41e-07 M | IC50 (OCI-AML3 (Blood), read-out: IC50 [M] (ProliFiler-140)): 3.3e-08 M and 3.29e-08 M | Reductive Activation Index (OCI-AML5 (Blood)): 3.9 and 3.93 | IC50 (OCI-AML5 (Blood), read-out: IC50 [M] (ProliFiler-140)): 8.6e-09 M and 8.62e-09 M | Reductive Activation Index (OCI-LY19 (Blood)): 3.74 | IC50 (OCI-LY19 (Blood), read-out: IC50 [M] (ProliFiler-140)): 4.11e-09 M and 4.1e-09 M | Reductive Activation Index (OPM-2 (Blood)): 5.41 | IC50 (OPM-2 (Blood), read-out: IC50 [M] (ProliFiler-140)): 1.22e-07 M and 1.2e-07 M | Reductive Activation Index (OV56 (Ovary)): 3.10 | IC50 (OV56 (Ovary), read-out: IC50 [M] (ProliFiler-140)): 6.51e-08 M and 6.5e-08 M | Reductive Activation Index (OVCAR-3 (Ovary)): 8.7 | IC50 (OVCAR-3 (Ovary), read-out: IC50 [M] (ProliFiler-140)): 1.2e-07 M and 1.17e-07 M | IC50 (OVCAR-3, read-out: IC50): 1.2e-07 M | Reductive Activation Index (OVK18 (Ovary)): 4.66 | IC50 (OVK18 (Ovary), read-out: IC50 [M] (ProliFiler-140)): 4.29e-08 M and 4.3e-08 M | IC50 (P31/FUJ (Blood), read-out: IC50 [M] (ProliFiler-140)): 3.7e-08 M and 3.66e-08 M | Reductive Activation Index (PANC-1 (Pancreas)): 5.4 | IC50 (PANC-1 (Pancreas), read-out: IC50 [M] (ProliFiler-140)): 2.5e-07 M and 2.53e-07 M | IC50 (PC3 (Prostate), read-out: IC50 [M] (ProliFiler-140)): 5.8e-08 M | IC50 (PC3, read-out: IC50): 5.8e-08 M | IC50 (PC-9 (Lung), read-out: IC50 [M] (ProliFiler-140)): 1.7e-08 M | Reductive Activation Index (RERF-LC-Ad2 (Lung)): 4.2 and 4.21 | IC50 (RERF-LC-Ad2 (Lung), read-out: IC50 [M] (ProliFiler-140)): 1.9e-07 M and 1.86e-07 M | IC50 (RERF-LC-MS (Lung), read-out: IC50 [M] (ProliFiler-140)): 6.44e-08 M and 6.4e-08 M | IC50 (RKO (Colon), read-out: IC50 [M] (ProliFiler-140)): 4.51e-08 M and 4.5e-08 M | Reductive Activation Index (RL95-2 (Endometrium)): 4.84 | IC50 (RL95-2 (Endometrium), read-out: IC50 [M] (ProliFiler-140)): 1.54e-07 M and 1.5e-07 M | IC50 (RPMI 8226 (Blood), read-out: IC50 [M] (ProliFiler-140)): 3.86e-08 M and 3.9e-08 M | IC50 (RPMI 8226, read-out: IC50): 3.9e-08 M | IC50 (SCH (Stomach), read-out: IC50 [M] (ProliFiler-140)): 5.2e-08 M and 5.16e-08 M | Reductive Activation Index (SCLC-21H (Lung)): 4.91 | IC50 (SCLC-21H (Lung), read-out: IC50 [M] (ProliFiler-140)): 3.21e-08 M and 3.2e-08 M | Reductive Activation Index (SJSA-1 (Bone)): 15.99 | IC50 (SJSA-1 (Bone), read-out: IC50 [M] (ProliFiler-140)): 2.37e-08 M and 2.4e-08 M | IC50 (SK-BR-3 (Breast), read-out: IC50 [M] (ProliFiler-140)): 7.4e-08 M and 7.39e-08 M | IC50 (SK-ES-1 (Bone), read-out: IC50 [M] (ProliFiler-140)): 5.66e-09 M and 5.7e-09 M | IC50 (SK-LU-1 (Lung), read-out: IC50 [M] (ProliFiler-140)): 2.7e-08 M | Reductive Activation Index (SK-MEL-3 (Skin)): 5.8 | IC50 (SK-MEL-3 (Skin), read-out: IC50 [M] (ProliFiler-140)): 1.8e-07 M and 1.77e-07 M | Reductive Activation Index (SK-N-FI (Brain)): 5.68 | IC50 (SK-N-FI (Brain), read-out: IC50 [M] (ProliFiler-140)): 1.2e-07 M | IC50 (SK-N-MC (Brain), read-out: IC50 [M] (ProliFiler-140)): 2.7e-09 M | Reductive Activation Index (SK-N-SH (Brain)): 5.1 and 5.09 | IC50 (SK-N-SH (Brain), read-out: IC50 [M] (ProliFiler-140)): 1.5e-07 M and 1.46e-07 M | IC50 (SK-OV3 (Ovary), read-out: IC50 [M] (ProliFiler-140)): 6.17e-08 M and 6.2e-08 M | IC50 (SK-OV3, read-out: IC50): 6.2e-08 M | Reductive Activation Index (SNU840 (Ovary)): 1.83 | IC50 (SNU840 (Ovary), read-out: IC50 [M] (ProliFiler-140)): 3.82e-08 M and 3.8e-08 M | IC50 (SNU-1 (Stomach), read-out: IC50 [M] (ProliFiler-140)): 3e-08 M | IC50 (SNU-16 (Stomach), read-out: IC50 [M] (ProliFiler-140)): 1.23e-07 M and 1.2e-07 M | Reductive Activation Index (SNU-216 (Stomach)): 6.77 and 6.8 | IC50 (SNU-216 (Stomach), read-out: IC50 [M] (ProliFiler-140)): 2.72e-07 M and 2.7e-07 M | Reductive Activation Index (SU-DHL-5 (Blood)): 6.4 | IC50 (SU-DHL-5 (Blood), read-out: IC50 [M] (ProliFiler-140)): 7.8e-09 M and 7.78e-09 M | Reductive Activation Index (SW480 (Colon)): 5.10 | IC50 (SW480 (Colon), read-out: IC50 [M] (ProliFiler-140)): 6.5e-08 M | Reductive Activation Index (SW620 (Colon)): 5.01 | IC50 (SW620 (Colon), read-out: IC50 [M] (ProliFiler-140)): 1.4e-07 M | IC50 (SW620, read-out: IC50): 1.4e-07 M | Reductive Activation Index (SW948 (Colon)): 5.26 | IC50 (SW948 (Colon), read-out: IC50 [M] (ProliFiler-140)): 1.29e-07 M and 1.3e-07 M | IC50 (SW-1783 (Brain), read-out: IC50 [M] (ProliFiler-140)): 6.68e-08 M and 6.7e-08 M | Reductive Activation Index (Saos-2 EC (Bone)): 6.02 | IC50 (Saos-2 EC (Bone), read-out: IC50 [M] (ProliFiler-140)): 3.88e-08 M and 3.9e-08 M | Reductive Activation Index (SiHa (Ovary)): 5.51 | IC50 (SiHa (Ovary), read-out: IC50 [M] (ProliFiler-140)): 1.11e-07 M and 1.1e-07 M | Reductive Activation Index (T84 (Colon)): 5.12 and 5.1 | IC50 (T84 (Colon), read-out: IC50 [M] (ProliFiler-140)): 1.77e-07 M and 1.8e-07 M | IC50 (T98G (Brain), read-out: IC50 [M] (ProliFiler-140)): 8.64e-08 M and 8.6e-08 M | Reductive Activation Index (T-47D (Breast)): 4.5 | IC50 (T-47D (Breast), read-out: IC50 [M] (ProliFiler-140)): 2.3e-07 M and 2.31e-07 M | IC50 (T-47D, read-out: IC50): 2.3e-07 M | Reductive Activation Index (U2OS (Bone)): 5.36 | IC50 (U2OS (Bone), read-out: IC50 [M] (ProliFiler-140)): 2.44e-08 M and 2.4e-08 M | Reductive Activation Index (U87MG (Brain)): 5.4 | IC50 (U87MG (Brain), read-out: IC50 [M] (ProliFiler-140)): 2.3e-07 M and 2.25e-07 M | Reductive Activation Index (U118MG (Brain)): 2.81 | IC50 (U118MG (Brain), read-out: IC50 [M] (ProliFiler-140)): 1.4e-07 M | Reductive Activation Index (U251MG (Brain)): 11 | IC50 (U251MG (Brain), read-out: IC50 [M] (ProliFiler-140)): 1.9e-07 M and 1.88e-07 M | IC50 (U-266 (Blood), read-out: IC50 [M] (ProliFiler-140)): 2.23e-08 M and 2.2e-08 M | Reductive Activation Index (U-937 (Blood)): 4.50 | IC50 (U-937 (Blood), read-out: IC50 [M] (ProliFiler-140)): 1.64e-08 M and 1.6e-08 M | Reductive Activation Index (ZR-75-1 (Breast)): 6.4 | IC50 (ZR-75-1 (Breast), read-out: IC50 [M] (ProliFiler-140)): 2.22e-07 M and 2.2e-07 M | IC50 (read-out: IC50 [M] (ProliFiler-140)): 1.74e-08 M and 1.7e-08 M
